Assay [1] concerns Symmetric Di-methyl Arginine (SDMA) signal (PRMT5 inhibition) in HCT116 MTAP-deleted cells. Put plainly: Symmetric di-methyl arginine image-based high content screen assay (SDMA assay), HCT116 MTAP-deleted. In kind it is cell-based. Particulars: for EC50 selectivity: HCT116 WT vs HCT116 MTAP-deleted; for EC50: Homo sapiens, HCT-116, HCT116 MTAP-deleted, class symbols. A digest of the protocol:
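Read-out is imaging of per-cell mean SDMA immunofluorescence (Alexa 488), with cells segmented by DAPI. Cells, MTAP-deleted or wild-type HCT116, were exposed to compound for 3 days at 37 °C before fixation. EC50 derived by 4-parameter non-linear logistic regression.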

In assay [2] the test system is HCT116 MTAP-deleted cell lines. Put plainly: Cell viability assay (CellTiter-Glo, 7 days), HCT116 MTAP-deleted. The class given is cell-based. To be noted: Homo sapiens, HCT-116; cell viability assay, HCT116 MTAP-deleted; class symbols; read-out: CC50. The method, boiled down:
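First, compounds are serially diluted in DMSO and dispensed into plates, which are frozen until seeding. Next, cells are added and incubated 7 days at 37 °C, 5% CO2, 90% humidity. Finally, CellTiter-Glo reagent is added and luminescence is measured to derive CC50.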
In general terms: In ATP-based viability assays light output follows the ATP content of the culture.

Broadly, the EC50 is the midpoint of the concentration-response curve. The low end stands for an effect from little substance, the high end for a need for much substance. As a reminder, the CC50 is the concentration giving 50% cytotoxicity.

Regarding `[2H]C([2H])([2H])c1ncn2c1c(N)nc1cnc(C(=O)N3CCC[C@@H]4Oc5cc(C(F)(F)F)ccc5[C@@H]43)cc12` [Ff-662, (4-amino-3-(methyl-d3)imidazo[1,5-a]pyrido[3,4-e]pyrazin-8-yl)((4aS,9bS)-7-(trifluoromethyl)-3,4,4a,9b-tetrahydrobenzofuro[3,2-b]pyridin-1(2H)-yl)methanone], in assay [1], the EC50 selectivity is reported as 70 and the half-maximal effective concentration (EC50) was 1 to 5 nM. For the same molecule, the cytotoxic concentration (CC50) in assay [2] is under 100 nM.

In assay [1], `Nc1nc2cc(F)c(C(=O)N3CCC[C@@H]4Oc5cc(S(F)(F)(F)(F)F)ccc5[C@@H]43)cc2n2cncc12` [Ff-663, (4-amino-7-fluoroimidazo[1,5-a]quinoxalin-8-yl)((4aS,9bS)-7-(pentafluoro-16-sulfaneyl)-3,4,4a,9b-tetrahydrobenzofuro[3,2-b]pyridin-1(2H)-yl)methanone] displayed an EC50 selectivity of 23 and an EC50 of at most 1 nM. Moreover, the CC50 in assay [2] was under 100 nM.

In assay [1], `Nc1nc2ccc(C(=O)N3CCC[C@@H]4Oc5cc(S(F)(F)(F)(F)F)ccc5[C@@H]43)cc2n2cncc12` [Ff-664, (4-aminoimidazo[1,5-a]quinoxalin-8-yl)((4aS,9bS)-7-(pentafluoro-16-sulfaneyl)-3,4,4a,9b-tetrahydrobenzofuro[3,2-b]pyridin-1(2H)-yl)methanone] registered an EC50 selectivity of 79 and an EC50 of at most 1 nM. Also, the CC50 in assay [2] is under 100 nM.

On to `Cc1ncn2c1c(N)nc1cnc(C(=O)N3CCC[C@@H]4Oc5cc(S(F)(F)(F)(F)F)ccc5[C@@H]43)cc12` [Ff-665, (4-amino-3-methylimidazo[1,5-a]pyrido[3,4-e]pyrazin-8-yl)((4aS,9bS)-7-(pentafluoro-16-sulfaneyl)-3,4,4a,9b-tetrahydrobenzofuro[3,2-b]pyridin-1(2H)-yl)methanone], for which, in assay [1], the EC50 selectivity was found to be 39 and the EC50 is at most 1 nM. In assay [2], the CC50 was under 100 nM.

In assay [1], `Nc1nc2ccc(C(=O)N3C[C@@H](F)C[C@@H]4Oc5cc(OC(F)(F)F)ccc5[C@@H]43)cc2n2cncc12` [Ff-667, (4-aminoimidazo[1,5-a]quinoxalin-8-yl)((3S,4aS,9bS)-3-fluoro-7-(trifluoromethoxy)-3,4,4a,9b-tetrahydrobenzofuro[3,2-b]pyridin-1(2H)-yl)methanone] came in with an EC50 selectivity of 115 and an EC50 of at most 1 nM. Besides, in assay [2], the CC50 was under 100 nM.

For the molecule `Nc1nc2cc(F)c(C(=O)N3CCC4(CCCc5ccccc54)C3)cc2n2cncc12` (stereo not drawn) [Ff-669, (4-amino-7-fluoroimidazo[1,5-a]quinoxalin-8-yl)(3,4-dihydro-2H-spiro[naphthalene-1,3′-pyrrolidin]-1′-yl)methanone], in assay [1], the EC50 selectivity was 485 and the EC50 fell in the range of 1 to 5 nM. In assay [2], the CC50 is 100 to 1000 nM.

In assay [1], `CN(C(=O)c1cc2c(cc1F)nc(N)c1cncn12)[C@@H]1COc2cc(C(F)(F)F)ncc21` [Ff-673, (S)-4-amino-7-fluoro-N-methyl-N-(6-(trifluoromethyl)-2,3-dihydrofuro[3,2-c]pyridin-3-yl)imidazo[1,5-a]quinoxaline-8-carboxamide] yielded an EC50 selectivity of 197 and an EC50 of 1 to 5 nM. For the same molecule, the CC50 in assay [2] is under 100 nM.

In assay [1], `Cc1cc2nc(N)c3cncn3c2cc1C(=O)N(C)[C@@H]1COc2cc(C(F)(F)F)ccc21` [Ff-674, (S)-4-amino-N,7-dimethyl-N-(6-(trifluoromethyl)-2,3-dihydrobenzofuran-3-yl)imidazo[1,5-a]quinoxaline-8-carboxamide] had an EC50 selectivity of 85 and an EC50 of at most 1 nM. In addition, in assay [2], the CC50 is under 100 nM.

In assay [1], `Nc1nc2ccc(C(=O)N3CCC4(CC4)[C@@H]4Oc5cc(C(F)(F)F)ccc5[C@@H]43)cc2n2cncc12` [Ff-675, (4-aminoimidazo[1,5-a]quinoxalin-8-yl)((4aS,9bS)-7-(trifluoromethyl)-2,3,4a,9b-tetrahydro-1H-spiro[benzofuro[3,2-b]pyridine-4,1′-cyclopropan]-1-yl)methanone] returned an EC50 selectivity of 107 and an EC50 of at most 1 nM. The CC50 in assay [2] was under 100 nM.

In assay [1], `Cc1ncn2c1c(N)nc1cnc(C(=O)N3CCC4(CC4)[C@@H]4Oc5cc(C(F)(F)F)ccc5[C@@H]43)cc12` [Ff-678, (4-amino-3-methylimidazo[1,5-a]pyrido[3,4-e]pyrazin-8-yl)((4aS,9bS)-7-(trifluoromethyl)-2,3,4a,9b-tetrahydro-1H-spiro[benzofuro[3,2-b]pyridine-4,1′-cyclopropan]-1-yl)methanone] displayed an EC50 selectivity of 263 and an EC50 of 1 to 5 nM. Also, in assay [2], the CC50 was under 100 nM.

For the molecule `C[C@H](c1ncccn1)N(Cc1ccc(C(F)(F)F)cn1)C(=O)c1ccc2nc(N)n3cncc3c2c1` [Fg-1, (R)-5-amino-N-(1-(pyrimidin-2-yl)ethyl)-N-((5-(trifluoromethyl)pyridin-2-yl)methyl)imidazo[1,5-c]quinazoline-9-carboxamide], in assay [1], the EC50 selectivity is recorded as 50 and the EC50 was in the range of 1 to 5 nM. For the same molecule, in assay [2], the CC50 lay in the range of 100 to 1000 nM.

Consider `Cc1ncn2c(N)nc3ccc(C(=O)N(Cc4ccc(C(F)(F)F)cn4)[C@H](C)c4ncccn4)cc3c12` [Fg-2, (R)-5-amino-1-methyl-N-(1-(pyrimidin-2-yl)ethyl)-N-((5-(trifluoromethyl)pyridin-2-yl)methyl)imidazo[1,5-c]quinazoline-9-carboxamide], for which, in assay [1], the EC50 selectivity is 39 and the EC50 lay within 1 to 5 nM. For the same molecule, in assay [2], the CC50 was under 100 nM.

As to `C[C@H](c1ncccn1)N(Cc1ccc(C(F)(F)F)cn1)C(=O)c1cc2c(cc1Cl)nc(N)n1cncc21` [Fg-3, (R)-5-amino-8-chloro-N-(1-(pyrimidin-2-yl)ethyl)-N-((5-(trifluoromethyl)pyridin-2-yl)methyl)imidazo[1,5-c]quinazoline-9-carboxamide], in assay [1], the EC50 selectivity is listed as 16 and the EC50 is over 5 nM. For the same molecule, in assay [2], the CC50 was in the range of 100 to 1000 nM.

With `C[C@H](c1ncccn1)N(Cc1ccc(C(F)(F)F)cn1)C(=O)c1cc2c(cc1F)nc(N)n1cncc21` [Fg-4, (R)-5-amino-8-fluoro-N-(1-(pyrimidin-2-yl)ethyl)-N-((5-(trifluoromethyl)pyridin-2-yl)methyl)imidazo[1,5-c]quinazoline-9-carboxamide], in assay [1], the EC50 selectivity is recorded as 23 and the EC50 is 1 to 5 nM. Further, the CC50 in assay [2] fell in the range of 100 to 1000 nM.

In assay [1], `Cc1ncc2c3cc(C(=O)N(Cc4ccc(C(F)(F)F)cn4)[C@H](C)c4ncccn4)ccc3nc(N)n12` [Fg-5, (R)-5-amino-3-methyl-N-(1-(pyrimidin-2-yl)ethyl)-N-((5-(trifluoromethyl)pyridin-2-yl)methyl)imidazo[1,5-c]quinazoline-9-carboxamide] had an EC50 selectivity of 19 and an EC50 of 1 to 5 nM. For the same molecule, in assay [2], the CC50 was under 100 nM.

Take `CCN(C(=O)c1ccc2nc(N)c3c(C)ncn3c2c1)[C@@H]1COc2cc(C(F)(F)F)ccc21` [Fg-6, (S)-4-amino-N-ethyl-3-methyl-N-(6-(trifluoromethyl)-2,3-dihydrobenzofuran-3-yl)imidazo[1,5-a]quinoxaline-8-carboxamide]: in assay [1], the EC50 selectivity is listed as 88 and the EC50 was in the range of 1 to 5 nM. In assay [2], the CC50 was under 100 nM.

In assay [1], `Cc1ncn2c1c(N)nc1ccc(C(=O)N(C)[C@@H]3COc4nc(C(F)(F)F)ccc43)cc12` [Fg-7, (S)-4-amino-N,3-dimethyl-N-(6-(trifluoromethyl)-2,3-dihydrofuro[2,3-b]pyridin-3-yl)imidazo[1,5-a]quinoxaline-8-carboxamide] yielded an EC50 selectivity of 496 and an EC50 of 1 to 5 nM. For the same molecule, in assay [2], the CC50 was in the range of 100 to 1000 nM.

In assay [1], `CN(C(=O)c1ccc2nc(N)n3cncc3c2c1)[C@@H]1COc2cc(C(F)(F)F)ccc21` [Fg-9, (S)-5-amino-N-methyl-N-(6-(trifluoromethyl)-2,3-dihydrobenzofuran-3-yl)imidazo[1,5-c]quinazoline-9-carboxamide] displayed an EC50 selectivity of 255 and an EC50 of over 5 nM. The CC50 in assay [2] was over 1000 nM.

Consider `Cc1ncc2c3cc(C(=O)N(C)[C@@H]4COc5cc(C(F)(F)F)ccc54)ccc3nc(N)n12` [Fg-10, (S)-5-amino-N,3-dimethyl-N-(6-(trifluoromethyl)-2,3-dihydrobenzofuran-3-yl)imidazo[1,5-c]quinazoline-9-carboxamide], for which, in assay [1], the EC50 selectivity is 307 and the EC50 was over 5 nM. In addition, the CC50 in assay [2] was over 1000 nM.

On to `Cc1ncn2c(N)nc3ccc(C(=O)N(C)[C@@H]4COc5cc(C(F)(F)F)ccc54)cc3c12` [Fg-11, (S)-5-amino-N,1-dimethyl-N-(6-(trifluoromethyl)-2,3-dihydrobenzofuran-3-yl)imidazo[1,5-c]quinazoline-9-carboxamide], for which, in assay [1], the EC50 selectivity was 225 and the concentration for a half-maximal effect (EC50) is over 5 nM. Moreover, the CC50 in assay [2] lay in the range of 100 to 1000 nM.

`Cc1ncn2c1c(N)nc1ccc(C(=O)N(C)C3CCc4nc(C(F)(F)F)ccc43)cc12` (stereo not drawn) [Fg-12, 4-amino-N,3-dimethyl-N-(2-(trifluoromethyl)-6,7-dihydro-5H-cyclopenta[b]pyridin-5-yl)imidazo[1,5-a]quinoxaline-8-carboxamide]: in assay [1], the EC50 selectivity came to 168 and the concentration giving a half-maximal response (EC50) is at most 1 nM. Further, the CC50 in assay [2] was under 100 nM.

For the molecule `Cc1ncn2c1c(N)nc1ccc(C(=O)N(C)[C@@H]3COCc4cc(Br)ccc43)cc12` [Fg-13, (S)-4-amino-N-(7-bromoisochroman-4-yl)-N,3-dimethylimidazo[1,5-a]quinoxaline-8-carboxamide], in assay [1], the EC50 selectivity is 207 and the EC50 is at most 1 nM. The CC50 in assay [2] is under 100 nM.

The values are drawn from US12448388B2, “PRMT5 inhibitors and uses thereof” (Gilead Sciences, Inc., priority 2023, dated 2025).
